Data published in patent US20190233884A1 (University of Southern California, priority 2016, published 2019).

Tested on: patients with refractory metastatic colorectal cancer (mCRC)
Experiment: PFS, OS and disease control in the testing (validation) cohort of refractory mCRC patients receiving TAS-102 (n=129, Italy), by baseline characteristics, SNP genotype and toxicity
Type: in vivo, human
Conditions: for OS HR (95% CI)‡ / PFS HR (95% CI) ‡: multivariable; for Disease Control Rate: PD / Disease Control Rate: SD: patients, n (%); for Disease Control Rate PD / Disease Control Rate SD / Overall Survival Median, months (95% CI) / Progression-free Survival Median, months (95% CI) / Overall Survival HR (95% CI) multivariate / Overall Survival HR (95% CI) univariate / Progression-free Survival HR (95% CI) multivariate / Progression-free Survival HR (95% CI) univariate / OS / PFS: testing cohort
Method: All patients underwent the treatment in salvage-line setting. […]
(§1) Genomic DNA was extracted from peripheral whole blood in patients of all cohorts using the QIAmp Kit (Qiagen, Valencia, Calif., USA) according to the manufacturer's protocol (www.qiagen.com). The candidate SNPs were genotyped using PCR-based direct DNA sequence analysis by ABI 3100A Capillary Genetic Analyzer and Sequencing Scanner v1.0 (Applied Biosystems). Amplification of extracted DNA was carried out using both forward and reverse primers for each gene polymorphism as shown in Table 1. […] The investigators analyzing SNPs were blinded to the clinical data of the study patients.
The primary endpoint in this study was progression-free survival (PFS), and the secondary endpoints were overall survival (OS) and disease control rate (DCR). PFS was calculated from the date of starting treatment to the first observation of disease progression or death from any cause. If a patient had no disease progression or death, PFS was censored at the date of last follow up. OS was calculated from the date of starting treatment until the date of death from any cause or the date of the last follow-up, at which point OS was censored. The disease control rate (DCR) was defined as the proportion of patients who achieved a stable disease (SD) or […] according to RECISTv1.1. Chi-square test was used to examine the difference in baseline patient characteristics among the three cohorts. Allelic distribution of all SNPs by ethnicity for deviation from Hardy-Weinberg equilibrium and the allelic frequencies of SNPs were tested using the Chi-square tests with one degree of freedom. The associations between candidate SNPs and disease control, and toxicities were examined using contingency tables and Fisher's exact test. The associations of SNPs with PFS and OS were analysed using Kaplan-Meier curves and the log-rank test. Because the true mode of inheritance of candidate SNPs was not established yet, a codominant or dominant genetic model if appropriate was considered.
All patients underwent the treatment in salvage-line setting. […] In all patients, adverse events were graded according to the Common Terminology Criteria for Adverse Events, version 4.0. […]
as §1, with “tested” for “genotyped”, “Biosystems).” for “Biosystems). Amplification of extracted DNA was carried out using both forward and reverse primers for each gene polymorphism as shown in Table 1.”, “data.” for “data of the study patients.”
The primary endpoint in this study was progression-free survival (PFS), and the secondary endpoints were overall survival (OS) and disease control rate (DCR).

[1] = ATR rs2227928 A/A vs G/G, univariate
[2] = ATR rs2227928 Any A vs G/G, univariate
[3] = ATR rs2227928 G/A vs G/G, univariate
[4] = Pin1 rs2233678 G/C and C/C grouped together
[5] = Pin1 rs2233678 G/C and C/C grouped vs G/G
[6] = Pin1 rs2233678 G/C and C/C grouped vs G/G, univariate
[7] = Validation cohort, Neutropenia grade <3
[8] = Validation cohort, Neutropenia grade ≥3 vs <3, univariate
[9] = hENT1 + OCT2/MATE1 classification: Fair
[10] = hENT1 + OCT2/MATE1 classification: Good or Excellent
[11] = hENT1 + OCT2/MATE1 classification: Poor

**Q.** What does the source list for Trifluridine/tipiracil [TAS-102]?
**A.** PFS median, months (95% CI) (ATR rs2227928 A/A): 2.4 months; OS HR (95% CI)‡ (ATR rs2227928 A/A vs G/G): 1.32; PFS HR (95% CI) ‡ (ATR rs2227928 A/A vs G/G): 1.03; OS HR (95% CI)† [1]: 0.94; PFS HR (95% CI) † [1]: 0.79; Disease Control Rate: PD (ATR rs2227928 A/A): 14 (56%); Disease Control Rate: SD (ATR rs2227928 A/A): 11 (44%); OS median, months (95% CI) (ATR rs2227928 Any A): 5.5 months; PFS median, months (95% CI) (ATR rs2227928 Any A): 2.0 months; OS HR (95% CI)‡ (ATR rs2227928 Any A vs G/G): 1.35; PFS HR (95% CI) ‡ (ATR rs2227928 Any A vs G/G): 1.33; OS HR (95% CI)† [2]: 1.12; PFS HR (95% CI) † [2]: 1.11; Disease Control Rate: PD (ATR rs2227928 Any A): 64 (72%); Disease Control Rate: SD (ATR rs2227928 Any A): 25 (28%); OS median, months (95% CI) (ATR rs2227928 G/A): 5.4 months; PFS median, months (95% CI) (ATR rs2227928 G/A): 2.0 months; OS HR (95% CI)‡ (ATR rs2227928 G/A vs G/G): 1.36; PFS HR (95% CI) ‡ (ATR rs2227928 G/A vs G/G): 1.45; OS HR (95% CI)† [3]: 1.20; PFS HR (95% CI) † [3]: 1.26; Disease Control Rate: PD (ATR rs2227928 G/A): 50 (78%); Disease Control Rate: SD (ATR rs2227928 G/A): 14 (22%); PFS median, months (95% CI) (ATR rs2227928 G/G): 2.1 months; Disease Control Rate: PD (ATR rs2227928 G/G): 27 (69%); Disease Control Rate: SD (ATR rs2227928 G/G): 12 (31%); OS median, months (95% CI) [4]: 5.4 months; PFS median, months (95% CI) [4]: 2.0 months; Disease Control Rate: PD [4]: 26 (70%); Disease Control Rate: SD [4]: 11 (30%); OS HR (95% CI)‡ [5]: 0.97; PFS HR (95% CI) ‡ [5]: 1.18; OS HR (95% CI)† [6]: 0.91; PFS HR (95% CI) † [6]: 1.00; OS median, months (95% CI) (Pin1 rs2233678 G/G): 5.8 months; PFS median, months (95% CI) (Pin1 rs2233678 G/G): 2.0 months; Disease Control Rate: PD (Pin1 rs2233678 G/G): 65 (71%); Disease Control Rate: SD (Pin1 rs2233678 G/G): 26 (29%); OS median, months (95% CI) [7]: 3.7 (3.3, 5.1) months; PFS median, months (95% CI) [7]: 1.9 (1.7, 1.9) months; PFS median, months (95% CI) (Validation cohort, Neutropenia grade ≥3): 2.3 (2.0, 3.7) months; OS HR (95% CI) [8]: 0.21 (0.10, 0.44); PFS HR (95% CI) [8]: 0.50 (0.32, 0.77); Disease Control Rate PD (MATE1_OCT019 Good): 63 (70%); Disease Control Rate SD (MATE1_OCT019 Good): 27 (30%); Overall Survival Median, months (95% CI) (MATE1_OCT019 Good): 5.4 (4.1, 9.0+) months; Progression-free Survival Median, months (95% CI) (MATE1_OCT019 Good): 2.0 (1.9, 2.3) months; Overall Survival HR (95% CI) multivariate (MATE1_OCT019 Good vs Poor): 1.12 (0.59, 2.10); Overall Survival HR (95% CI) univariate (MATE1_OCT019 Good vs Poor): 1.18 (0.64, 2.17); Progression-free Survival HR (95% CI) multivariate (MATE1_OCT019 Good vs Poor): 0.91 (0.59, 1.42); Progression-free Survival HR (95% CI) univariate (MATE1_OCT019 Good vs Poor): 0.94 (0.62, 1.43); Disease Control Rate PD (MATE1_OCT019 Poor): 28 (74%); Disease Control Rate SD (MATE1_OCT019 Poor): 10 (26%); Progression-free Survival Median, months (95% CI) (MATE1_OCT019 Poor): 2.0 (1.8, 2.1) months; Disease Control Rate PD (MATE1 rs2289659 A/A): 20 (74%); Disease Control Rate SD (MATE1 rs2289659 A/A): 7 (26%); Progression-free Survival Median, months (95% CI) (MATE1 rs2289659 A/A): 2.0 (1.7, 2.3) months; Overall Survival HR (95% CI) multivariate (MATE1 rs2289659 A/A vs G/G): 1.42 (0.61, 3.32); Overall Survival HR (95% CI) univariate (MATE1 rs2289659 A/A vs G/G): 1.13 (0.50, 2.58); Progression-free Survival HR (95% CI) multivariate (MATE1 rs2289659 A/A vs G/G): 1.11 (0.63, 1.96); Progression-free Survival HR (95% CI) univariate (MATE1 rs2289659 A/A vs G/G): 1.01 (0.58, 1.74); Disease Control Rate PD (MATE1 rs2289659 Any A): 64 (70%); Disease Control Rate SD (MATE1 rs2289659 Any A): 27 (30%); Overall Survival Median, months (95% CI) (MATE1 rs2289659 Any A): 5.3 (3.9, 8.8+) months; Progression-free Survival Median, months (95% CI) (MATE1 rs2289659 Any A): 2.0 (1.9, 2.1) months; Overall Survival HR (95% CI) multivariate (MATE1 rs2289659 Any A vs G/G): 1.60 (0.85, 3.04); Overall Survival HR (95% CI) univariate (MATE1 rs2289659 Any A vs G/G): 1.42 (0.76, 2.64); Progression-free Survival HR (95% CI) multivariate (MATE1 rs2289659 Any A vs G/G): 1.14 (0.74, 1.75); Progression-free Survival HR (95% CI) univariate (MATE1 rs2289659 Any A vs G/G): 1.03 (0.68, 1.58); Disease Control Rate PD (MATE1 rs2289659 G/A): 44 (69%); Disease Control Rate SD (MATE1 rs2289659 G/A): 20 (31%); Overall Survival Median, months (95% CI) (MATE1 rs2289659 G/A): 4.6 (3.7, 8.8+) months; Progression-free Survival Median, months (95% CI) (MATE1 rs2289659 G/A): 2.0 (1.8, 2.3) months; Overall Survival HR (95% CI) multivariate (MATE1 rs2289659 G/A vs G/G): 1.67 (0.56, 3.25); Overall Survival HR (95% CI) univariate (MATE1 rs2289659 G/A vs G/G): 1.55 (0.81, 2.96); Progression-free Survival HR (95% CI) multivariate (MATE1 rs2289659 G/A vs G/G): 1.15 (0.73, 1.53); Progression-free Survival HR (95% CI) univariate (MATE1 rs2289659 G/A vs G/G): 1.04 (0.66, 1.64); Disease Control Rate PD (MATE1 rs2289659 G/G): 27 (73%); Disease Control Rate SD (MATE1 rs2289659 G/G): 10 (27%); Overall Survival Median, months (95% CI) (MATE1 rs2289659 G/G): 9.0 (4.4, 9.0+) months; Progression-free Survival Median, months (95% CI) (MATE1 rs2289659 G/G): 1.9 (1.9, 2.4) months; Disease Control Rate PD (OCT2 rs316019 C/A): 21 (68%); Disease Control Rate SD (OCT2 rs316019 C/A): 10 (32%); Overall Survival Median, months (95% CI) (OCT2 rs316019 C/A): 4.6 (3.6, 7.1+) months; Progression-free Survival Median, months (95% CI) (OCT2 rs316019 C/A): 1.9 (1.7, 2.4) months; Overall Survival HR (95% CI) multivariate (OCT2 rs316019 C/A vs C/C): 1.00 (0.53, 1.89); Overall Survival HR (95% CI) univariate (OCT2 rs316019 C/A vs C/C): 1.19 (0.64, 2.19); Progression-free Survival HR (95% CI) multivariate (OCT2 rs316019 C/A vs C/C): 1.28 (0.79, 2.07); Progression-free Survival HR (95% CI) univariate (OCT2 rs316019 C/A vs C/C): 1.12 (0.72, 1.76); Disease Control Rate PD (OCT2 rs316019 C/C): 70 (72%); Disease Control Rate SD (OCT2 rs316019 C/C): 27 (28%); Overall Survival Median, months (95% CI) (OCT2 rs316019 C/C): 5.5 (4.7, 9.0+) months; Progression-free Survival Median, months (95% CI) (OCT2 rs316019 C/C): 2.0 (1.9, 2.3) months; Overall Survival HR (95% CI) multivariate (adjusted for age group, liver metastasis, ECOG performance status, previous anti-EGFR, OCT2 rs316000 A/G vs A/A): 0.66 (0.36, 1.23); Overall Survival HR (95% CI) multivariate (adjusted for age group, liver metastasis, ECOG performance status, previous anti-EGFR, OCT2 rs316000 Any G vs A/A): 0.66 (0.36, 1.21); Overall Survival HR (95% CI) multivariate (adjusted for age group, liver metastasis, ECOG performance status, previous anti-EGFR, OCT2 rs316000 G/G vs A/A): 0.64 (0.08, 4.91); Overall Survival HR (95% CI) univariate (genotype vs A/A, OCT2 rs316000 A/G vs A/A): 0.87 (0.48, 1.57); Overall Survival HR (95% CI) univariate (genotype vs A/A, OCT2 rs316000 Any G vs A/A): 0.83 (0.46, 1.47); Overall Survival HR (95% CI) univariate (genotype vs A/A, OCT2 rs316000 G/G vs A/A): 0.45 (0.06, 3.28); OS [9]: 4.0 months; PFS [9]: 1.9 months; OS [10]: 9.0 months; PFS [10]: 2.1 months; OS [11]: 3.6 months; PFS [11]: 2.0 months; Disease Control Rate PD (hENT1 rs750370 A/A): 36 (80%)
